Measured values as given in ChEMBL document CHEMBL4190350, “Synthesis, antimicrobial, antiquorum-sensing, antitumor and cytotoxic activities of new series of cyclopenta(hepta)[b]thiophene and fused cyclohepta[b]thiophene analogs” (Eur J Med Chem, 2017).
In brackets after ≈: the same amount, converted by molar mass.

Legend:
Escherichia coli [1] = experiment: Antimicrobial activity against Escherichia coli incubated for 24 hrs by disc diffusion assay; format: functional
Bacillus cereus [2] = experiment: Antimicrobial activity against Bacillus cereus incubated for 24 hrs by disc diffusion assay; format: functional
Staphylococcus aureus [3] = experiment: Antimicrobial activity against Staphylococcus aureus incubated for 24 hrs by disc diffusion assay; format: functional
Candida albicans [4] = experiment: Antimicrobial activity against Candida albicans incubated for 48 hrs by disc diffusion assay; format: functional
Aspergillus fumigatus [5] = experiment: Antimicrobial activity against Aspergillus fumigatus incubated for 48 hrs by disc diffusion assay; format: functional
[6] = test system: Chromobacterium violaceum; experiment: Inhibition of quorum sensing system in Chromobacterium violaceum ATCC 12472 assessed as inhibition of violacein production at 5 mg/mL incubated for 48 hrs
Bacillus cereus [7] = experiment: Antimicrobial activity against Bacillus cereus incubated for 24 hrs by serial dilution method; format: functional
HepG2 = experiment: Antitumor activity against human HepG2 cells assessed as inhibition of cell viability incubated for 48 hrs by MTT assay; format: functional, cell-based; conditions: HepG2, 48 h
MCF7 = experiment: Antitumor activity against human MCF7 cells assessed as inhibition of cell viability incubated for 48 hrs by MTT assay; format: functional, cell-based; conditions: MCF7, 48 h
HT-29 = experiment: Antitumor activity against human HT-29 cells assessed as inhibition of cell viability incubated for 48 hrs by MTT assay; format: functional, cell-based; conditions: HT-29, 48 h
Ehrlich [8] = experiment: Antitumor activity against mouse EAC cells implanted in Swiss albino mouse assessed as mean survival time at 0.5 mg for 9 days (reference value: 14.5 day); format: functional
Ehrlich [9] = experiment: Antitumor activity against mouse EAC cells implanted in Swiss albino mouse assessed as increase in life span at 0.5 mg for 9 days relative to untreated control; format: functional
Ehrlich [10] = experiment: Antitumor activity against mouse EAC cells implanted in Swiss albino mouse assessed as tumor volume at 0.5 mg for 9 days (reference value: 9.85 ml); format: functional
Mus musculus [11] = experiment: Toxicity in mouse EAC cells implanted Swiss albino mouse assessed as hemoglobin level at 0.5 mg for 9 days (reference value: 8.15 g/dl); format: organism-based; conditions: in vivo, 216 h
Mus musculus [12] = experiment: Toxicity in mouse EAC cells implanted Swiss albino mouse assessed as RBC count at 0.5 mg for 9 days (reference value: 3.69 10^6/mm3); format: organism-based; conditions: in vivo, 216 h
Mus musculus [13] = experiment: Toxicity in mouse EAC cells implanted Swiss albino mouse assessed as WBC count at 0.5 mg for 9 days (reference value: 23.96 10^3/mm3); format: organism-based; conditions: in vivo, 216 h
WI-38 = experiment: Cytotoxicity in human WI38 cells assessed as inhibition of cell viability incubated for 48 hrs by MTT assay; format: cell-based; conditions: WI-38, 48 h
[14] = Binding affinity to DNA (unknown origin) assessed as reduction in absorption maxima for methyl green/DNA complex incubated for 24 hrs by methyl green/DNA displacement assay
Candida albicans [15] = experiment: Antimicrobial activity against Candida albicans incubated for 48 hrs by serial dilution method; format: functional
Aspergillus fumigatus [16] = experiment: Antimicrobial activity against Aspergillus fumigatus incubated for 48 hrs by serial dilution method; format: functional
Escherichia coli [17] = experiment: Antimicrobial activity against Escherichia coli incubated for 24 hrs by serial dilution method; format: functional
Staphylococcus aureus [18] = experiment: Antimicrobial activity against Staphylococcus aureus incubated for 24 hrs by serial dilution method; format: functional

Compound	diameter of the inhibition zone (DIZ) (Escherichia coli [1])	diameter of the inhibition zone (DIZ) (Bacillus cereus [2])	diameter of the inhibition zone (DIZ) (Staphylococcus aureus [3])	diameter of the inhibition zone (DIZ) (Candida albicans [4])	diameter of the inhibition zone (DIZ) (Aspergillus fumigatus [5])	INH [6]	MIC (Bacillus cereus [7])	IC50 (HepG2)	IC50 (MCF7)	IC50 (HT-29)	MST (Ehrlich [8])	ILS (Ehrlich [9])	Activity (Ehrlich [10])	Activity (Mus musculus [11])	Activity (Mus musculus [12])	Activity (Mus musculus [13])	IC50 (WI-38)	IC50 [14]	MIC (Candida albicans [15])	MIC (Escherichia coli [17])	also measured
Nc1nc2sc3c(c2c(=O)n1N)CCCCC3	11 mm	17 mm	5 mm	<2 mm	<2 mm	< 2 mm	1250 µM (≈ 313 µg/mL)	82.7 µM	35.8 µM	51.6 µM											
CC(=O)C1(C(=O)c2ccccc2)N=Nc2sc3c(c2C1=O)CCCCC3 (stereo not drawn)	<2 mm	16 mm	5 mm	<2 mm	<2 mm	11 mm	853 µM (≈ 313 µg/mL)	14.1 µM	11.8 µM	9.7 µM	43.3 days	198.62%	2.55 mL	12.92 g/dL	5.16 ×10⁶ /mm3	7.95 ×10³ /mm3	63.3 µM	21.4 µM			
CCOC(=O)c1c(NN=C(C(C)=O)C(C)=O)sc2c1CCCCC2	6 mm	14 mm	8 mm	20 mm	30 mm	4 mm		30.6 µM	21.4 µM	53.3 µM								37.1 µM	223 µM (≈ 78.1 µg/mL)		MIC (Aspergillus fumigatus [16]): 223 µM
CCOC(=O)C1(C(C)=O)N=Nc2sc3c(c2C1=O)CCCCC3 (stereo not drawn)	17 mm	5 mm	<2 mm	5 mm	<2 mm	3 mm		91.2 µM	50.2 µM	78.6 µM										934 µM (≈ 312 µg/mL)	
CCOC(=O)c1c(N/N=C(\C(C)=O)C(=O)c2ccccc2)sc2c1CCC2	7 mm	14 mm	9 mm	<2 mm	2 mm	3 mm		28.4 µM	13.7 µM	57.4 µM	33.5 days	130.95%	3.53 mL	11.74 g/dL	4.79 ×10⁶ /mm3	9.62 ×10³ /mm3	67.8 µM	29.8 µM			
CC1(C)S[C@@H]2[C@H](NC(=O)[C@H](N)c3ccccc3)C(=O)N2[C@H]1C(=O)O [AMPICILLIN]	28 mm	12 mm	20 mm				3580 µM (≈ 1250 µg/mL)													55.9 µM (≈ 19.5 µg/mL)	MIC (Staphylococcus aureus [18]): 894 µM (≈ 313 µg/mL)
GENTAMICIN							0.31 µM														
NNC(=O)c1c(NN=C2C(N)=NN=C2N)sc2c1CCCCC2	19 mm	30 mm	28 mm	24 mm	32 mm	12 mm	234 µM (≈ 78.1 µg/mL)	21.6 µM	23.2 µM	30.5 µM								52.2 µM	467 µM (≈ 156 µg/mL)	467 µM (≈ 156 µg/mL)	MIC (Staphylococcus aureus [18]): 234 µM (≈ 78.1 µg/mL); MIC (Aspergillus fumigatus [16]): 234 µM
CCOC(=O)c1c(NN=C(C(C)=O)C(C)=O)sc2c1CCC2	21 mm	26 mm	22 mm	23 mm	26 mm	11 mm	485 µM (≈ 156 µg/mL)	13.8 µM	7.6 µM	18.7 µM	39.5 days	172.35%	3.13 mL	12.23 g/dL	4.95 ×10⁶ /mm3	8.76 ×10³ /mm3	33.5 µM	42.2 µM	485 µM (≈ 156 µg/mL)	485 µM (≈ 156 µg/mL)	MIC (Staphylococcus aureus [18]): 485 µM (≈ 156 µg/mL); MIC (Aspergillus fumigatus [16]): 485 µM
OC(Cn1cncn1)(Cn1cncn1)c1ccc(F)cc1F [FLUCONAZOLE]				22 mm	<2 mm														4080 µM (≈ 1250 µg/mL)		MIC (Aspergillus fumigatus [16]): > 2500 mg/L
CC(=O)C1(C(C)=O)N=Nc2sc3c(c2C1=O)CCCCC3	<2 mm	7 mm	<2 mm	19 mm	<2 mm	3 mm		20.7 µM	14.9 µM	12.8 µM	36 days	148.27%	3.3 mL	12.04 g/dL	4.81 ×10⁶ /mm3	9.11 ×10³ /mm3	47.6 µM	45.5 µM	513 µM (≈ 156 µg/mL)		
CO/N=C(\C(=O)N[C@@H]1C(=O)N2C(C(=O)O)=C(COC(C)=O)CS[C@H]12)c1csc(N)n1 [CEFOTAXIME]																				13.6 µM (≈ 6.19 µg/mL)	MIC (Staphylococcus aureus [18]): 32.9 µM (≈ 15 µg/mL)
CCOC(=O)c1c(NN=C(C#N)C#N)sc2c1CCCCC2	7 mm	11 mm	19 mm	11 mm	9 mm	9 mm		10.8 µM	8.2 µM	7.6 µM	42.5 days	193.1%	2.7 mL	12.54 g/dL	5.09 ×10⁶ /mm3	8.18 ×10³ /mm3	53.5 µM	55.3 µM			MIC (Staphylococcus aureus [18]): 988 µM (≈ 312 µg/mL)
